Data set [1] deals with LPS-activated rat neonatal microglia. Nature of the data set: PMA-stimulated TXB2 generation by LPS-activated rat neonatal microglia (immunoassay). It is filed as cell-based. On the procedure:
(§1) All experiments were performed with adherence to the National Institutes of Health guidelines on the use of experimental animals and with protocols approved by Midwestern University's Research and Animal Care Committee. To isolate rat neonatal microglia, cerebral cortices of 1–2 day-old Sprague-Dawley rats purchased from Harlan (Indianapolis, IN) were surgically removed and placed in cold DMEM + 10% FBS + 120 U/ml P and 12 μg/ml S, the meninges carefully removed, and brain tissue minced and dissociated with trypsin-EDTA at 36°C for 3–5 min. The mixed astroglial cell suspension was plated in either 75- or 162-cm^2 vented cell culture flasks with DMEM medium supplemented with 10% FBS + 120 U/ml P + 12 μg/ml S and grown in a humidified 5% CO2 incubator at 36°C for 12–14 days. […] Microglia were characterized as described earlier.
(§2) To study the effects of manzamines A, B, C, D, E and F on the generation of TXB2 and O2^-, rat neonatal microglia (2 × 10^5 cells/24-well cell culture clusters) were treated to the following protocol. Seventeen hours prior to the experiments, microglia cells were treated with LPS (0.3 ng/ml) in a final volume of 1 ml of DMEM supplemented with 10% FBS + 120 U/ml P + 12 μg/ml. […] O2^-, TXB2 and lactate dehydrogenase (LDH) release were assayed as described below.
(§3) Following the incubation of LPS-activated microglia with HBSS, manzamines or vehicle as explained above, PMA- (1 μM) or OPZ- (0.5 mg/mL)triggered TXB2 generation in the culture supernatants was measured using immunoassays (Cayman Chemical, Ann Arbor, MI) as indicated by the manufacturer's protocol. Results were expressed as pg/mL produced after 70 min of PMA or OPZ stimulation.

Data set [2] shares this test system. Nature of the data set: OPZ-stimulated TXB2 generation by LPS-activated rat neonatal microglia (immunoassay). Format: cell-based. On the procedure:
as §1, §2, §3

The test system is the same in data set [3]. The data set is described as follows: PMA-stimulated O2^- generation by LPS-activated rat neonatal microglia (SOD-inhibitable FCC reduction). Format: cell-based. As to conditions: Rattus norvegicus, Microglia. The protocol: as §1, §2
(§4) O2^- generation was determined by the SOD-inhibitable reduction of FCC [23]. […] All experimental treatments were run in triplicate and in a final volume of 1 ml. Changes in FCC absorbance were measured at 550 nm using a Beckman DU-650 spectrophotometer.

The test system is the same in data set [4]. The data set is described as follows: OPZ-stimulated O2^- generation by LPS-activated rat neonatal microglia (SOD-inhibitable FCC reduction). It is filed as cell-based. On the procedure: as §1, §2, §4
The target of data set [5] is hypoxanthine-xanthine oxidase system (Homo sapiens, UniProt P47989). Nature of the data set: Cell-free O2^- generation by hypoxanthine-xanthine oxidase system (scavenging test). It is filed as biochemical. As to conditions: control (DMSO) 12 ± 1.1, test concentration not given. On the procedure:
A standard hypoxanthine-xanthine oxidase system was used as a cell-free source of O2^-. O2^- was generated by incubation of purified xanthine oxidase (0.02 Units/ml) with hypoxanthine (1.5 mM) at 37°C [21]. O2^- formation was assessed spectrophotometrically as the increase in absorbance at 550 nm associated with the SOD (30 U/mL)-inhibitable reduction FCC (50 μM) as described above for rat microglia O2^- generation and expressed in nmoles/30 minutes.

On the set-up of data set [6]: method as in PMID 10817722. As to conditions: cited from earlier work.
Where [7] appears, read: Rattus norvegicus, Microglia, OPZ 0.5 mg/mL, 70 min, LPS 0.3 ng/mL 17 h.

Sequence of hypoxanthine-xanthine oxidase system (P47989 whole entry): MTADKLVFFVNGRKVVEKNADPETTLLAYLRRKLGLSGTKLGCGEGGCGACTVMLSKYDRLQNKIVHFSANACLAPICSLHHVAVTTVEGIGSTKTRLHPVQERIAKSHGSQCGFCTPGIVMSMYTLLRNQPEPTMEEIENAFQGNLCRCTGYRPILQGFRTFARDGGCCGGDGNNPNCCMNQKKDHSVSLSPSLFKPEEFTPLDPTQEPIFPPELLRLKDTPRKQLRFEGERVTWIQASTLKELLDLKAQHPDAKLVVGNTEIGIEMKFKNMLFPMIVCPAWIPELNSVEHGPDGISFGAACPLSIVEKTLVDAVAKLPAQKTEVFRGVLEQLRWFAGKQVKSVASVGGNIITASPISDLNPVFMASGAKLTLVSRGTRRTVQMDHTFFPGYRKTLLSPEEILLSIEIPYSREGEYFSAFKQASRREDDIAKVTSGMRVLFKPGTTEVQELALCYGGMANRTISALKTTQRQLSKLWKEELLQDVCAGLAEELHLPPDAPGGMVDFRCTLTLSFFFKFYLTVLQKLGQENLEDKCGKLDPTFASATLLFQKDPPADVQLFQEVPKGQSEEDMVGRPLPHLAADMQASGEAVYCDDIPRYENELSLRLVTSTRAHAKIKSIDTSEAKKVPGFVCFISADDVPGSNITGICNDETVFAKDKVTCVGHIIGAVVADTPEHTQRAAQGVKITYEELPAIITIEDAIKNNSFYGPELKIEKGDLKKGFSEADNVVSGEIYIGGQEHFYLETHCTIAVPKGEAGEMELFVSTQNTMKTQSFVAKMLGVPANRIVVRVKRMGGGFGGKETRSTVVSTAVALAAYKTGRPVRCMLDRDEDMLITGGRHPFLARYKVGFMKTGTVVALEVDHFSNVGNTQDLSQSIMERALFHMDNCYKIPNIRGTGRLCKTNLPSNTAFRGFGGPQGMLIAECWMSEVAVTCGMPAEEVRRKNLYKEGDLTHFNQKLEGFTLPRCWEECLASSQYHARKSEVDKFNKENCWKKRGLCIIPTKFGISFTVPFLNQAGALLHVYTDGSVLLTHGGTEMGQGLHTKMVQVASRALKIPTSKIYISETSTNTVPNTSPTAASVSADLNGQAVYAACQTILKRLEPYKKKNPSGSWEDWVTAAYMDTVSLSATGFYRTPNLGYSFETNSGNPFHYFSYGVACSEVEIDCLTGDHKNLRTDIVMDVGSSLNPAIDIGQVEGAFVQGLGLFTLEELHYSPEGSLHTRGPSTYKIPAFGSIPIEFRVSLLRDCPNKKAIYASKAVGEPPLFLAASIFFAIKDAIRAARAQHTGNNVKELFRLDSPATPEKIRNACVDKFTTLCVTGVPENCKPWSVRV

For the compound `O[C@]12C=C(c3nccc4c3[nH]c3ccccc34)[C@@H]3CCN(CCCC/C=C\CC1)C[C@@]31C[C@@H]3/C=C\CCCCN3[C@H]12` [MZA, manzamine A], the concentration for half-maximal inhibition (IC50) (as a rule, the concentration that inhibits the measured activity by half) is less than 16 nM in data set [1] (Rattus norvegicus, Microglia, PMA 1 μM, 70 min, LPS 0.3 ng/mL 17 h, manzamine added 15 min before); 3160 nM in data set [2] (setting [7]); 100 nM in data set [3] (PMA 1 μM, 70 min, LPS 0.3 ng/mL 17 h); more than 10000 nM in data set [4] (setting [7]). The inhibition at 10 µM was determined as 95.5% in data set [1] (Rattus norvegicus, Microglia, at 10 μM, read-out: maximum inhibition of PMA-stimulated TXB2 generation); 58% in data set [2] (Rattus norvegicus, Microglia, at 10 μM); 55.9 ± 6.1% in data set [3] (at 10 μM). Also, the “PMA-stimulated TXB2 released” value in data set [1] (at 10 μM) was 78.3 ± 45 pg of TXB2 per 200,000 microglia per 70 min. The “OPZ-stimulated TXB2 released” value in data set [2] (at 10 μM) is 1,927 ± 474 pg of TXB2 per 200,000 microglia per 70 min. Also, the “OPZ-stimulated O2^- released” value in data set [4] (at 10 μM) is 9.5 ± 1 O2^- nmol per 200,000 microglia per 70 min. Besides, in data set [4] (even at 10 μM), the “effect on OPZ-stimulated O2^- generation” value is recorded as “did not appear to affect”. For the same compound, in data set [5], the “O2^- generated by hypoxanthine-xanthine oxidase system” value worked out at 15.3 ± 4.4 nmoles/30 min. For the same compound, the “in vivo toxicity” value in data set [6] is on record as “lack of significant in vivo toxicity”.

Source of the values: paper PMC1079881, “Differential modulation of microglia superoxide anion and thromboxane B2 generation by the marine manzamines” (BMC Pharmacology, 2005).
